The values that follow come from paper PMC10746543, “Design principles for cyclin K molecular glue degraders” (Nature Chemical Biology, 2023).

“And” between values parts separate entries of the source, which are not always exact repeats. Equal values may be shown once. Read-outs that look alike come from different tables or passages of the source.

One assay concerns the target T1, CDK12–cyclin K and DDB1 (Homo sapiens, UniProt Q16531+Q9NYV4, K965R).
T1 construct: His6–CDK12 (a.a. 713–1,052); full-length or beta-propeller B domain deletion (ΔBPB: a.a. 396–705 deleted) constructs of His6–DDB1ΔBPB, StrepII–Avi–DDB1, or His6–Spy–DDB1; made in house; host or cells: Trichoplusia ni High Five insect cells (baculovirus)
The experiment in a line: TR-FRET ternary complex formation assay (compound titration). It counts as binding. Put shortly: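 Read-out used a 70 μs delay to cut background fluorescence; TR-FRET signal taken as the 520 nm/490 nm emission ratio.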
In general terms: In TR-FRET formats the signal depends on donor and acceptor labels being close together.

Assay [1] concerns cyclin K–eGFP degradation reporter. Put plainly: Cyclin K reporter stability analysis (dual-color cyclin K–eGFP reporter). Format: cell-based, human. Particulars: source data sheet correlations; read-out: DC50. The essentials: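 Readout was the eGFP-to-mCherry geometric-mean ratio by flow cytometry, normalized to three DMSO controls, after 5 h drug exposure. Cells used were HEK293T–Cas9 expressing the dual-colour cyclin K–eGFP degradation reporter.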

Another assay concerns HEK293T cells. Put plainly: Drug sensitivity assay (CellTiter-Glo viability) with or without MLN4924 pretreatment. The conditions noted are these: Supplementary Table 2; for EC50: Homo sapiens, HEK-293T, HEK293T viability, 72 h, compound alone, read-out: Cellular assays EC50; for Toxicity rescue: MLN4924-mediated cytotoxicity rescue, 10 µM used where n.d. It counts as cell-based, human. The essentials:
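HEK293T–Cas9 cells at 0.15 × 10^6 ml^−1 were treated with DMSO or 100 nM MLN4924 before plating. Test drugs were added 2 h later and exposure lasted 3 days. Viability was read by CellTiter-Glo luminescence and expressed relative to DMSO controls.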
(Cellular ATP, detected with luciferase, serves as a proxy for viable cell number.)

Where [2] appears, read: in vitro complex formation, 50 nM CDK12–cyclin K, 100 nM DDB1, text and figures, read-out: TR-FRET EC50.
The mark [3] stands for this setting: sheet MOESM7, read-out: log TR-FRET EC50 (converted).
Setting [4] is: source data sheet correlations, read-out: TR-FRET EC50.

T1 sequence (Q9NYV4 713-1052 K965R): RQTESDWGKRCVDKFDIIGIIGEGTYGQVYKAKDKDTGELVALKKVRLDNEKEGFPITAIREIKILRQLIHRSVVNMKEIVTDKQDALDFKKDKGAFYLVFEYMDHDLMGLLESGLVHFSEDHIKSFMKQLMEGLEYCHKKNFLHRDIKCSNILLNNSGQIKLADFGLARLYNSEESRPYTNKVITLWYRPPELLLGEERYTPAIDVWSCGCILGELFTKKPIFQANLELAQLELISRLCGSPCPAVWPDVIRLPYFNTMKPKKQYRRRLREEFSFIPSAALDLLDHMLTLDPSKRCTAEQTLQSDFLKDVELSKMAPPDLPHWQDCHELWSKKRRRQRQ
T1 sequence (O75909 1-267 partner): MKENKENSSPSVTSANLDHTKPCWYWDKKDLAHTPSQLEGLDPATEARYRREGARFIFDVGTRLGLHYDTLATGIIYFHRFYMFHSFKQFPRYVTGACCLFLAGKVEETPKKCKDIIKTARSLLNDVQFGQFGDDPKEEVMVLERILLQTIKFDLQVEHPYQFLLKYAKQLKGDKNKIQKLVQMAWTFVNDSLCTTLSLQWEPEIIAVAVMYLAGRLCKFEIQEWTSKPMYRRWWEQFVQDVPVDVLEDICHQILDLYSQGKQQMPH
T1 sequence (Q16531 whole entry): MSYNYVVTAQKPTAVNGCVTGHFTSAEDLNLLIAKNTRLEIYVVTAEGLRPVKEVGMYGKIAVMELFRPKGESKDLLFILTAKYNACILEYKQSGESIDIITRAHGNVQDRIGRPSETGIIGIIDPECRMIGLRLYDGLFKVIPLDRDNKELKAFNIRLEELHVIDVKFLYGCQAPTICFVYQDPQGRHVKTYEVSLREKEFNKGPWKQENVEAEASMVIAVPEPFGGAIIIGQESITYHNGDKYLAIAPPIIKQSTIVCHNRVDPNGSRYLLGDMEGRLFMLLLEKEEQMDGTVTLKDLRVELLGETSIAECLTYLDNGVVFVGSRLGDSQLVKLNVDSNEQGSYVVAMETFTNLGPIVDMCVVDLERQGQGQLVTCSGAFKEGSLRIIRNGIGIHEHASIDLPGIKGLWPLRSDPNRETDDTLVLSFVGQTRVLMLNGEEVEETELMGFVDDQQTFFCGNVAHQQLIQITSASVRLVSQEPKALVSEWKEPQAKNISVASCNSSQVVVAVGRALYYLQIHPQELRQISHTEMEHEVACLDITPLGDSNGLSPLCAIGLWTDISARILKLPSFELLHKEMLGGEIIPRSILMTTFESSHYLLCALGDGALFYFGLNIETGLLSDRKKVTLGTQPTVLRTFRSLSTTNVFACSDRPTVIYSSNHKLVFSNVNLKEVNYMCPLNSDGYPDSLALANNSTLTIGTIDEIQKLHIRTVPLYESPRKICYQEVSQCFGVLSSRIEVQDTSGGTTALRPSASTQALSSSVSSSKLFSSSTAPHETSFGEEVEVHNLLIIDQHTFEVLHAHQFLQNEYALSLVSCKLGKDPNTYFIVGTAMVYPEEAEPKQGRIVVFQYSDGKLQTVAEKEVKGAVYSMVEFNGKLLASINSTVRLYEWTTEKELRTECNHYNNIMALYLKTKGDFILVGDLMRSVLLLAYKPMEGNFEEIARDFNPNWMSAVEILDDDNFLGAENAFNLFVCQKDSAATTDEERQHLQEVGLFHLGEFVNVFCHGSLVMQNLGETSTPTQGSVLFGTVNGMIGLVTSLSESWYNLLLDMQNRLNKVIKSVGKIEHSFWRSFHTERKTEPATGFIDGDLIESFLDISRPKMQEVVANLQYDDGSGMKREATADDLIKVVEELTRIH

What is called EC50 is the concentration that produces a half-maximal response. As usually defined, the DC50 is the concentration at which degradation of the target reaches its halfway point. In the case of `CC(C)n1cnc2c(NCc3ccc(-c4ccccn4)cc3)nc(NCc3c(Cl)cncc3Cl)nc21` [DS48], at CDK12–cyclin K and DDB1 (raw titration data), the “TR-FRET signal at compound concentration 0.468 nM” value was 0.2749 and 0.2901; the “TR-FRET signal at compound concentration 2.16 nM” value was 0.3467 and 0.3488; the “TR-FRET signal at compound concentration 3.6 nM” value was 0.4769 and 0.4631; the “TR-FRET signal at compound concentration 7.92001 nM” value is 0.7379 and 0.6676. For the same molecule, on CDK12–cyclin K and DDB1 (raw titration data), the “TR-FRET signal at compound concentration 15.84 nM” value is 1.149 and 0.9938; the “TR-FRET signal at compound concentration 30.96 nM” value is 1.778 and 1.5795; the “TR-FRET signal at compound concentration 62.6401 nM” value is 2.574 and 2.417; the “TR-FRET signal at compound concentration 125.28 nM” value is 3.287 and 3.206. Further, at CDK12–cyclin K and DDB1 (raw titration data), the “TR-FRET signal at compound concentration 244.8 nM” value was 3.511 and 3.701; the “TR-FRET signal at compound concentration 993.601 nM” value is 3.896 and 4.02; the “TR-FRET signal at compound concentration 2001.6 nM” value is 3.877 and 4.06. Besides, the EC50 at CDK12–cyclin K and DDB1 (setting [2]) amounted to 0.046 ± 0.002 µM. Further, on CDK12–cyclin K and DDB1 (setting [3]), the EC50 is 0.046 µM. Besides, the EC50 on CDK12–cyclin K and DDB1 (setting [4]) amounted to 0.046 µM. In addition, the half-maximal degradation concentration (DC50) in assay [1] is 0.366 µM. In the assay on HEK293T cells, the EC50 stood at 0.907 µM and the Toxicity rescue stood at 313%.

`Cc1nn(C)c(CNc2nc(NCc3ccc(-c4ccccn4)cc3)c3ncn(C(C)C)c3n2)c1S(N)(=O)=O` [DS59]: the “TR-FRET signal at compound concentration 4.68 nM” value on CDK12–cyclin K and DDB1 (compound concentration 4.68 nM, raw titration data) is 0.1939 and 0.1953. For the same molecule, the “TR-FRET signal at compound concentration 21.6 nM” value on CDK12–cyclin K and DDB1 (compound concentration 21.6 nM, raw titration data) is 0.4174 and 0.4335. On CDK12–cyclin K and DDB1 (compound concentration 36 nM, raw titration data), the “TR-FRET signal at compound concentration 36 nM” value was 0.8682 and 0.9198. Further, the “TR-FRET signal at compound concentration 79.2001 nM” value at CDK12–cyclin K and DDB1 (compound concentration 79.2001 nM, raw titration data) is 1.565 and 1.549. The “TR-FRET signal at compound concentration 158.4 nM” value at CDK12–cyclin K and DDB1 (compound concentration 158.4 nM, raw titration data) is 2.139 and 2.165. On CDK12–cyclin K and DDB1 (compound concentration 309.6 nM, raw titration data), the “TR-FRET signal at compound concentration 309.6 nM” value is 2.574 and 2.56. Also, on CDK12–cyclin K and DDB1 (compound concentration 626.401 nM, raw titration data), the “TR-FRET signal at compound concentration 626.401 nM” value was 2.883 and 2.886. The “TR-FRET signal at compound concentration 1252.8 nM” value on CDK12–cyclin K and DDB1 (compound concentration 1252.8 nM, raw titration data) is 3.135 and 3.111. The “TR-FRET signal at compound concentration 2448 nM” value at CDK12–cyclin K and DDB1 (compound concentration 2448 nM, raw titration data) was 3.2283 and 3.26. The “TR-FRET signal at compound concentration 9936.01 nM” value at CDK12–cyclin K and DDB1 (compound concentration 9936.01 nM, raw titration data) was 3.148 and 3.114. Also, on CDK12–cyclin K and DDB1 (compound concentration 20016 nM, raw titration data), the “TR-FRET signal at compound concentration 20016 nM” value is 2.946 and 3.018. Further, the EC50 came out at 0.101 ± 0.005 µM at CDK12–cyclin K and DDB1 (setting [2]); 0.101 µM on CDK12–cyclin K and DDB1 (setting [4]); 1.42 µM in the assay with HEK293T cells. Also, the DC50 in assay [1] amounted to 0.566 µM. The Toxicity rescue in the assay on HEK293T cells was 230%.

As to `Cn1cc(-n2cnc3c(NCc4nc5cc(Cl)c(Cl)cc5[nH]4)nc(NCCc4cn[nH]c4)nc32)cn1` [DS57], at CDK12–cyclin K and DDB1 (raw replicate titration data), the “TR-FRET signal at compound concentration 0.468 nM” value was 0.2681 and 0.2803; the “TR-FRET signal at compound concentration 2.16 nM” value is 0.3056 and 0.3131; the “TR-FRET signal at compound concentration 3.6 nM” value is 0.3611 and 0.3774; the “TR-FRET signal at compound concentration 7.92001 nM” value was 0.4715 and 0.4922. At CDK12–cyclin K and DDB1 (raw replicate titration data), the “TR-FRET signal at compound concentration 15.84 nM” value was 0.6621 and 0.6827; the “TR-FRET signal at compound concentration 30.96 nM” value is 1.043 and 1.045; the “TR-FRET signal at compound concentration 62.6401 nM” value is 1.709 and 1.668; the “TR-FRET signal at compound concentration 125.28 nM” value was 2.476 and 2.42. Moreover, on CDK12–cyclin K and DDB1 (raw replicate titration data), the “TR-FRET signal at compound concentration 244.8 nM” value is 2.963 and 3.026; the “TR-FRET signal at compound concentration 993.601 nM” value is 3.269 and 3.459; the “TR-FRET signal at compound concentration 2001.6 nM” value was 3.336 and 3.495. Also, the EC50 on CDK12–cyclin K and DDB1 (setting [2]) worked out at 0.072 ± 0.005 µM. On CDK12–cyclin K and DDB1 (setting [3]), the EC50 was 0.0723 µM. At CDK12–cyclin K and DDB1 (setting [4]), the EC50 was 0.0723 µM. Besides, the DC50 in assay [1] amounted to 0.587 µM. In the assay with HEK293T cells, the EC50 was over 10 µM and the Toxicity rescue came to 0%.
